# Tested on: mice inoculated with PC-3 PIP cells
# Assay: Additional therapy study (injection 2 days after tumor cell inoculation)
# Format: in vivo
# Settings: for Median Survival: control 26 days
# Procedure: The day of the treatment, two days after tumor cell inoculation, was defined as Day 0 of the study (Table S7).
# Endpoint criteria: The mice were monitored until they reached an endpoint (definition of endpoints, see Chapter 13) or over the whole period of 38 days when the study was terminated.
# Data analysis of the therapy study: The tumor growth delay indices (TGDI2 and TGDI5) were calculated as reported in the Methods of the main manuscript. The median survival was determined using GraphPad Prism software (version 7).
smiles,measurement,setting,value
O=C([O-])CN1CCN(CC(=O)[O-])CCN(CC(=O)NCC2CCC(C(=O)NC(Cc3ccc4ccccc4c3)C(=O)NCCCCC(NC(=O)NC(CCC(=O)O)C(=O)O)C(=O)O)CC2)CCN(CC(=O)[O-])CC1.[161Tb+3] (stereo not shown) [^161Tb-PSMA-617],First mouse euthanized,2.5 MBq,26 days
same,TGDI2,2.5 MBq,1.0 ± 0.4
same,TGDI5,2.5 MBq,1.2 ± 0.3
same,Median Survival,2.5 MBq,31 days
same,Last mouse euthanized,"2.5 MBq, study end Day 38",study end
same,First mouse euthanized,5.0 MBq,30 days
same,TGDI2,5.0 MBq,1.6 ± 0.4
same,Median Survival,5.0 MBq,34 days
same,Last mouse euthanized,"5.0 MBq, study end Day 38",study end
same,Survival,10 MBq,survived until the end of the study at Day 38
same,Cases in which tumors started to grow,"10 MBq, from Day 25 and Day 35 on",2 of 8
same,First mouse euthanized,"10 MBq, study end Day 38",study end
same,Last mouse euthanized,"10 MBq, study end Day 38",study end

# — PMC6820371, “Terbium-161 for PSMA-targeted radionuclide therapy of prostate cancer” (European Journal of Nuclear Medicine and Molecular Imaging, 2019)
